Experimental findings from ChEMBL document CHEMBL1201862, “PubChem BioAssay data set” (2004) are described below.

Structures are written as SMILES.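 Where inhibition never reached the appropriate level, the endpoint shown equals the highest concentration tested. Otherwise, values were interpolated linearly from a five-concentration, 48-hour dose response in 96-well plates. At the GI50, growth is halved.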 Active and inactive are the calls of the source. No stated cut-off is given here; in the data, active = GI50 up to about 1.1 µM and inactive = higher.

What all share (assay): inhibition of tumour cell growth, NCI panel, 48 h
Assay [1] concerns OVCAR-8.
In assay [2] the test system is OVCAR-3.
The subject of assay [3] is MCF7.
The test system of assay [4] is SNB-75.
Assay [5] deals with CAKI-1.
In assay [6] the test system is HCT-15.
In assay [7] the test system is K562.
The subject of assay [8] is MDA-MB-231.
The subject of assay [9] is SF-268.
Assay [10] deals with UACC-257.
Assay [11] deals with SF-539.
The subject of assay [12] is COLO 205.
Assay [13] concerns HOP-92.
Assay [14] relates to MDA-MB-435.
Assay [15] concerns HT-29.
For assay [16], the system named is RPMI-8226.
The test system of assay [17] is A498.
Assay [18] concerns HL-60.
Assay [19] relates to OVCAR-4.
In assay [20] the test system is SNB-78.

As to `O=C(O)c1cnccc1-c1cc(=O)[nH]n1-c1ccccc1`, the GI50 was 52.8 µM (inactive) in assay [1]; > 43.9 µM (inactive) in assay [2]; 43.2 µM (inactive) in assay [3]; > 68.5 µM (inactive) in assay [4]; 15.4 µM (inactive) in assay [5]; 25.9 µM in assay [6]. The GI50 is 10 µM (inactive) in assay [7]; > 100 µM (inactive) in assay [8]; > 83.2 µM (inactive) in assay [9]; 66.1 µM (inactive) in assay [10]; 35.6 µM (inactive) in assay [11]; 16 µM (inactive) in assay [12]. Further, the GI50 is > 53.2 µM (inactive) in [13]; 46 µM (inactive) in assay [14]; 21.4 µM (inactive) in [15]; 48 µM (inactive) in assay [16]; > 100 µM (inactive) in assay [17]; 20.9 µM (inactive) in assay [18]. In assay [19], the GI50 was > 51.9 µM (inactive).
Take `N=C(c1ccccc1)N(c1ccccc1)c1ccccc1`: the GI50 in assay [1] is > 100 µM (inactive); in assay [4], > 100 µM (inactive); in assay [5] it was > 100 µM (inactive); in assay [20] it was 55 µM (inactive); in assay [9], 48.6 µM (inactive); in assay [10], > 100 µM (inactive). Also, the GI50 in [11] was 74.1 µM (inactive); in assay [12] it was 19.2 µM (inactive); in assay [13], < 0.01 µM (active); in assay [15], 42.5 µM (inactive); in [18], 20.8 µM (inactive); in assay [19], 88.9 µM (inactive).
In the case of `CCOC(=O)/C(C(C)=O)=C1/N[C@H](C(=O)OCC)CS1`, the GI50 is > 100 µM (inactive) in assay [1]; > 100 µM (inactive) in assay [2]; > 100 µM (inactive) in assay [4]; > 100 µM (inactive) in [5]; greater than 100 µM in assay [6]; > 100 µM (inactive) in assay [7]. For the same compound, the GI50 was > 100 µM (inactive) in [20]; > 100 µM (inactive) in assay [9]; > 100 µM (inactive) in [10]; 10 µM (inactive) in [11]; > 100 µM (inactive) in assay [12]; > 100 µM (inactive) in assay [15]. For the same compound, the GI50 in assay [16], in assay [18] and in [19] was > 100 µM (inactive) in each case.
`CN(C)CCNc1ccc(C(=O)NCCCN(C)CCCNC(=O)c2ccc(NCCN(C)C)c3c(=O)c4ccccc4[nH]c23)c2[nH]c3ccccc3c(=O)c12`: the GI50 in assay [1] was 0.0272 µM (active); in [2], 0.469 µM (active); in assay [3], < 0.01 µM (active); in [4], < 0.01 µM (active); in [5], 5.6 µM (inactive); in assay [6] it was 3.81 µM. The GI50 in assay [7] is 0.0332 µM (active); in assay [8], 0.024 µM (active); in assay [9], < 0.01 µM (active); in [10] it was 0.968 µM (active); in assay [11] it was < 0.01 µM (active); in [12], 0.0163 µM (active). In addition, the GI50 in assay [13] was 0.0724 µM (active); in assay [14], 0.032 µM (active); in assay [15], < 0.01 µM (active); in assay [16], < 0.01 µM (active); in assay [17] it was 0.105 µM (active); in assay [18] it was 0.155 µM (active). Moreover, the GI50 in [19] is 0.0322 µM (active).
As for `CN1C(=O)C(C)(C)C2(SC(C)(C)C2(C)C)N(C)C1=S` (stereo unspecified), the GI50 in assay [1] is > 100 µM (inactive); in [2], > 100 µM (inactive); in [4], > 100 µM (inactive); in assay [5], 8.49 µM (inactive); in assay [6] it was greater than 100 µM; in assay [7], 53.8 µM (inactive). Also, the GI50 in assay [20] was > 100 µM (inactive); in assay [9] it was > 100 µM (inactive); in assay [10] it was > 100 µM (inactive); in assay [11], > 100 µM (inactive); in assay [12] it was > 100 µM (inactive); in assay [13], 27.8 µM (inactive). The GI50 in [15] is > 100 µM (inactive); in [16], > 100 µM (inactive); in assay [18], 96.2 µM (inactive); in [19] it was > 100 µM (inactive).
